Test results as given in US20100061994A1, “MEDICAL USES OF 39-DESMETHOXYRAPAMYCIN AND ANALOGUES THEREOF” (priority 2005, published 2010).

Columns and labels:
A498 = test: Monolayer assay Protocol 2 (SRB), high MDR-expressing cell lines; assay type: cell-based, human; details: Renal A498, high MDR-expressing, 48 h
Protocol: (§1) The human tumor cell lines of the National Cancer Institute (NCI) cancer screening panel were grown in RPMI 1640 medium containing 5% fetal bovine serum and 2 mM L-glutamine (Boyd and Paull, 1995). Cells were inoculated into 96 well microtiter plates in 0.1 mL at plating densities ranging from 5,000 to 40,000 cells/well depending on the doubling time of individual cell lines. After cell inoculation, the microtiter plates were incubated at 37° C., 5% CO2, 95% air and 100% relative humidity for 24 h prior to addition of experimental drugs.
(§2) After 24 h, two plates of each cell line were fixed in situ with trichloroacetic acid (TCA), to represent a measurement of the cell population for each cell line at the time of drug addition (Tz). Experimental drugs were solubilized in dimethyl sulfoxide at 400-fold the desired final maximum test concentration and stored frozen prior to use. At the time of drug addition, an aliquot of frozen concentrate was thawed and diluted to twice the desired final maximum test concentration with complete medium containing 0.05 mg/mL gentamicin. Additional four, 10-fold or ½ log serial dilutions were made to provide a total of five drug concentrations plus control. Aliquots of 0.1 mL of these different drug dilutions were added to the appropriate microtiter wells already containing 0.1 mL of medium, resulting in the required final drug concentrations.
(§3) Following drug addition, the plates were incubated for an additional 48 h at 37° C., 5% CO2, 95% air, and 100% relative humidity. For adherent cells, the assay was terminated by the addition of cold TCA. Cells were fixed in situ by the gentle addition of 0.05 mL of cold 50% (w/v) TCA (final concentration, 10% TCA) and incubated for 60 minutes at 4° C. The supernatant was discarded, and the plates were washed five times with tap water and air dried. Sulforhodamine B (SRB) solution (0.1 mL) at 0.4% (w/v) in 1% acetic acid was added to each well, and plates were incubated for 10 minutes at room temperature. After staining, unbound dye was removed by washing five times with 1% acetic acid and the plates were air dried. Bound stain was subsequently solubilized with 10 mM trizma base, and the absorbance was read on an automated plate reader at a wavelength of 515 nm. […] Using the seven absorbance measurements [time zero, (Tz), control growth, (C), and test growth in the presence of drug at the five concentration levels (Ti)], the percentage growth was calculated at each of the drug concentrations levels. Percentage growth inhibition was calculated as:
(§4) Three dose response parameters were calculated for each experimental agent. […] The drug concentration resulting in total growth inhibition (TGI) was calculated from Ti=Tz. […]

SF295 = test: as above; assay type: cell-based, human; details: CNS SF295, high MDR-expressing, 48 h
Protocol: as §1, §2, §3, §4

[1] = Pharmacokinetic analysis Protocol 2 (blood and brain); assay type: in vivo, female Balb C mice; details: female, Balb C, mouse; for Kp: brain / whole blood; for AUC: whole blood, blood, 0-24 h
Protocol: To prepare the dosing solution, 5 mg test compound was dissolved in 100 μL ethanol resulting in a compound solution of 50 mg/mL. The solution was then diluted to 2 mg/mL by adding approximately 2.4 mL 0.15 M NaCl (0.9% w/v saline), 5% v/v Tween 20 and 5% v/v PEG 400 (final ethanol conc. 4% v/v).
A single dose of 10 mg/kg p.o. or 2 mg/kg i.v. of test compound at a concentration of 10 mg/kg p.o or 2 mg/kg i.v. was administered to groups of 3 female Balb C mice. At 5 min, 15 min, 60 min, 4 h, 8 h and 24 h, groups were sacrificed and whole blood samples of approximately 0.2 mL were retrieved in EDTA to give a final concentration of 0.5 mM, additionally the brains were removed.

[2] = Pharmacokinetic analysis Protocol 1 (blood and brain); details: female, CD1, mouse, 3 mg/kg
Protocol: (§5) The test compounds were prepared in a vehicle consisting of 4% Ethanol, 5% Tween-20, 5% polyethyleneglycol 400 in 0.15M NaCl. A single dbse of 10 mg/kg p.o. or 3 mg/kg i.v. was administered to groups of female CD1 mice (3 mice for each compound per time point). At 0 min, 4 min, 15 min, 1 h, 4 h, and 24 h groups were sacrificed and the blood and the brain were collected from each mouse for further analysis.
(§6) The brain samples were snap frozen in liquid nitrogen and stored at −20° C. A minimum of 0.2 mL of whole blood from each animal was collected in tubes containing ethylene diamine tetra-acetic acid (EDTA) as anticoagulant, thoroughly mixed, and stored at −20° C.
(§7) Analysis was performed by ASI Limited, (St George's Hospital Medical School, London). The concentration of the test compound in the blood and brain samples supplied was determined by HPLC with MS detection. Control, test compound free, blood samples were obtained from Harlan Sera-Lab Limited, (Loughborough, England). Time zero brain samples were supplied as control, test compound free, brain samples.
(§8) One hemisphere of each brain was homogenized with 5 mL water.
(§9) The control or test sample of mouse brain or blood (0.05 mL), internal standard solution (0.1 mL), 5% Zinc sulphate solution (0.5 mL), and acetone (0.5 mL) were pipetted into a 2 mL polypropylene tube (Sarstedt Limited, Beaumont Leys, Leicester, UK) and the contents were then mixed for a minimum of 5 minutes (IKA-Vibrax-VXR mixer, Merck (BDH) Limited, Poole Dorset, UK). The tubes were then centrifuged in a microfuge for a minimum of 2 minutes. The solvent layer was decanted into a 4.5 mL polypropylene tube containing sodium hydroxide (0.1M, 0.1 mL) and methyl-tert-butyl ether (MTBE, 2 mL). The tube was then mixed for a minimum of 5 minutes (IKA-Vibrax-VXR mixer) and then centrifuged at 3500 rpm for 5 minutes. The solvent layer was transferred to a 4.5 mL conical polypropylene tube, placed in a SpeedVac® and evaporated to dryness.
(§10) The dried extracts were reconstituted with 0.15 mL 80% methanol and mixed for a minimum of 5 minutes (IKA-Vibrax-VXR mixer) and centrifuged at 3500 rpm for 5 minutes. The extract was transferred to auto sampler tubes (NLG Analytical, Adelphi Mill, Bollington, Cheshire, UK) and placed into the auto-sampler tray which was set at ambient temperature. The auto-sampler was programmed to inject a 0.03 mL aliquot of each extract onto the analytical column.
(§11) The AUC for each compound in blood or in brain tissue was calculated using Kinetica 4.4 (InnaPhase Corporation), using a non-compartmental model and the trapezoidal method for AUC calculation.
(§12) The partition coefficient (Ri) for each compound after p.o. and i.v. administration was calculated as shown below:
(§13) The partition coefficient (R) for each compound after i.v. administration was calculated as shown below:

NCI 60 cell line panel = NCI 60 cell line panel monolayer proliferation assay (Protocol 2, SRB) with COMPARE analysis; assay type: cell-based, human; details: with the exception of one cell line
Protocol: The COMPARE analysis uses a Pearson analysis to compare the activity of two compounds on the NCI 60-cell line panel and produces a correlation coefficient which indicates how similar the two compounds spectra of activity are and this may indicate how related their mechanism's of action are.
as §1, with “After cell inoculation, the microtiter plates were incubated at 37° C., 5% CO2, 95% air and 100% relative humidity for 24 h prior to addition of experimental drugs.” left out
Following drug addition, the plates were incubated for an additional 48 h at 37° C., 5% CO2, 95% air, and 100% relative humidity. […] Bound stain was subsequently solubilized with 10 mM trizma base, and the absorbance was read on an automated plate reader at a wavelength of 515 nm. […] Using the seven absorbance measurements [time zero, (Tz), control growth, (C), and test growth in the presence of drug at the five concentration levels (Ti)], the percentage growth was calculated at each of the drug concentrations levels. Percentage growth inhibition was calculated as:
as §4

EAE = test: Experimental allergic encephalomyelitis (EAE) model of multiple sclerosis; assay type: in vivo, male Lewis rats
[3] = mouse, in vivo
Protocol: as §5, §6, §7, §8, §9, §10, §11, §12, §13

Caco-2 cells = test: Caco-2 permeation assay; details: 0.01 mM
Protocol: Confluent Caco-2 cells (Li, A. P., 1992; Grass, G. M., et al., 1992, Volpe, D. A., et al., 2001) in a 24 well Corning Costar Transwell format were provided by In Vitro Technologies Inc. (IVT Inc., Baltimore, Md., USA). The apical chamber contained 0.15 mL Hank's balanced buffer solution (HBBS) pH 7.4, 1% DMSO, 0.1 mM Lucifer Yellow. The basal chamber contained 0.6 mL HBBS pH 7.4, 1% DMSO. Controls and tests were incubated at 37° C. in a humidified incubator, shaken at 130 rpm for 1 h. Lucifer Yellow permeates via the paracellular (between the tight junctions) route only, a high Apparent Permeability (Papp) for Lucifer Yellow indicates cellular damage during assay and all such wells were rejected. […] Compounds were tested in a uni- and bi-directional format by applying compound to the apical or basal chamber (at 0.01 mM). Compounds in the apical or basal chambers were analysed by HPLC-MS (Method A, see Materials & Methods). Results were expressed as Apparent Permeability, Papp, (nm/s) and as the Flux Ratio (A to B versus B to A).
[formula] • Volume Acceptor: 0.6 ml (A>B) and 0.15 ml (B>A) • Area of monolayer: 0.33 cm2 • Δtime: 60 min
A positive value for the Flux Ratio indicates active efflux from the apical surface of the cells.

[4] = 5 mg/kg p.o., Prophylactic regime
[5] = 5 mg/kg p.o., Therapeutic regime
[6] = 15 mg/kg p.o., Prophylactic regime
[7] = 15 mg/kg p.o., Therapeutic regime

CO[C@H]1C[C@@H]2CC[C@@H](C)[C@@](O)(O2)C(=O)C(=O)N2CCCC[C@H]2C(=O)O[C@H]([C@H](C)C[C@@H]2CC[C@@H](O)[C@H](OC)C2)CC(=O)[C@H](C)/C=C(\C)[C@@H](O)[C@@H](OC)C(=O)[C@H](C)C[C@H](C)/C=C/C=C/C=C/1C [Rapamycin]
GI50 (A498; Homo sapiens): 251 nM | GI50 (SF295; Homo sapiens, SF-295): 100 nM | Kp ([1]; intravenous, PK protocol 2, 2 mg/kg i.v., read-out: Ri i.v. (partition coefficient)): 0.255 | Kp ([1]; oral, PK protocol 2, 10 mg/kg p.o., read-out: Ri p.o. (partition coefficient)): 0.066 | AUC ([1]; iv, PK protocol 2, 2 mg/kg i.v., read-out: AUCBLOOD i.v.): 24900 ng·h/mL | AUC ([1]; po, PK protocol 2, 10 mg/kg p.o., read-out: AUCBLOOD p.o.): 25200 ng·h/mL | Kp ([2]; brain / whole blood, intravenous): 1.13 | AUC ([2]; whole blood, iv): 10800 ng·h/mL

COC1CC2CCC(C)C(O)(O2)C(=O)C(=O)N2CCCCC2C(=O)OC(C(C)CC2CCC(O)CC2)CC(=O)C(C)C=C(C)C(O)C(OC)C(=O)C(C)CC(C)C=CC=CC=C1C (stereo not drawn) [39-desmethoxyrapamycin]
efficacy against high MDR-expressing cell lines when compared to rapamycin (NCI 60 cell line panel): equivalent or improved efficacy | Log GI50 (A498): −7.07 | Log GI50 (SF295): −5.85 | Cumulative score Mean ± St Dev. (EAE; [4]): 17 ± 4.6 | Duration (days) Mean ± St Dev. (EAE; [4]): 10 ± 1.8 days | Onset Mean ± St Dev. (EAE; [4]): 12 ± 2.1 | Cumulative score Mean ± St Dev. (EAE; [5]): 30 ± 3.1 | Duration (days) Mean ± St Dev. (EAE; [5]): 15 ± 1.3 days | Onset Mean ± St Dev. (EAE; [5]): 10 ± 1.0 | Cumulative score Mean ± St Dev. (EAE; [6]): 22 ± 22 | Duration (days) Mean ± St Dev. (EAE; [6]): 10 ± 3.4 days | Onset Mean ± St Dev. (EAE; [6]): 12 ± 2.4 | Cumulative score Mean ± St Dev. (EAE; [7]): 32 ± 5.7 | Duration (days) Mean ± St Dev. (EAE; [7]): 16 ± 3.3 days | Onset Mean ± St Dev. (EAE; [7]): 9 ± 1.4 | efficacy in the EAE model compared to cyclophosphamide (EAE; 5 and 15 mg/kg, prophylactic and therapeutic regime): equivalent efficacy in this model to cyclophosphamide | AUCBLOOD i.v. ([3]; iv, 3 mg/kg): 15444.3 | AUCBRAIN i.v. ([3]; iv, 3 mg/kg): 24911.4 | AUCBLOOD p.o. ([3]; po, 10 mg/kg): 16856.5 | AUCBRAIN p.o. ([3]; po, 10 mg/kg): 1697.69 | Caco-2: Efflux Ratio (Caco-2 cells; bi-directional format): 15 | Caco-2: Papp (Caco-2 cells; pH 7.4, 1 h): 2.9 ×10⁻⁶ cm/s
